The results in this text go back to US9233951B2, “Heterocyclic compounds as pesticides” (Bayer Intellectual Property GmbH, priority 2010, dated 2016).

Read-outs that look alike come from different tables or passages of the source.

Data set [1] concerns green peach aphid (Myzus persicae). Put plainly: Myzus persicae test (spray treatment). Format: in vivo. As to conditions: foliar, 144 h, read-out: efficacy in %. The procedure:
Myzus persicae Test (Spray Treatment)
• Solvent: 78 parts by weight of acetone • 1.5 parts by weight of dimethylformamide • Emulsifier: 0.5 part by weight of alkylaryl polyglycol ether
To prepare an appropriate active ingredient preparation, 1 part by weight of active ingredient is mixed with the stated amounts of solvent and emulsifier, and the concentrate is diluted with emulsifier-containing water to the desired concentration. Discs of Chinese cabbage (Brassica pekinensis) infested by all stages of the green peach aphid (Myzus persicae) are sprayed with an active ingredient preparation of the desired concentration.
After 6 days, the efficacy in % is determined. 100% means that all of the aphids have been killed; 0% means that none of the aphids have been killed.

The nature of a further data set: physchem. Format: physicochemical. On the procedure: 1 Method Description for Determination of the logP values and Mass Detection
Eluents for determination in the acidic range (pH 3.4): • Eluent A: acetonitrile+1 ml formic acid/l.
The λmax values were determined in the maxima of the chromatographic signals using the UV spectra from 200 nm to 400 nm. The mass was detected (M^+, m/z) by means of an Agilent MSD mass spectrometer.

In data set [2] the test system is armyworm (Spodoptera frugiperda). The experiment in a line: Spodoptera frugiperda test (spray treatment). It counts as in vivo. As to conditions: application rate 500 g/ha; maize leaf discs sprayed; after 7 days; 100% = all caterpillars killed. On the procedure: Spodoptera frugiperda Test (Spray Treatment)
• Solvent: 78.0 parts by weight of acetone • 1.5 parts by weight of dimethylformamide • Emulsifier: 0.5 part by weight of alkylaryl polyglycol ether
To prepare an appropriate active ingredient preparation, 1 part by weight of active ingredient is mixed with the stated amounts of solvent and emulsifier, and the concentrate is diluted with emulsifier-containing water to the desired concentration. Discs of maize leaves (Zea mays) are sprayed with an active ingredient preparation of the desired concentration and, after drying, populated with the armyworm (Spodoptera frugiperda).
After 7 days, the efficacy in % is determined. 100% means that all caterpillars have been killed; 0% means that none of the caterpillars have been killed.

Where [3] appears, read: application rate 500 g/ha, Chinese cabbage leaf discs sprayed, after 6 days, 100% = all aphids killed.
Setting [4] is: reverse-phase HPLC column (C 18), pH 3.4, HPLC, reverse-phase C 18, acidic range pH 3.4, 55° C., table of compounds, read-out: logP (HCO2H).
Setting [5] is: reverse-phase HPLC column (C 18), pH 3.4, HPLC-MS value printed in the preparation example text, acidic range pH 3.4, read-out: logP (HCOOH).

For the compound `CN(C)C(=O)c1cnc(-c2cccnc2)o1` [Compound 25, N,N-Dimethyl-2-(pyridin-3-yl)-1,3-oxazole-5-carboxamide], in data set [1] (setting [3]), the pest or weed control at 500 g/ha turned out to be 90%. Moreover, the chromatographic logP in “physchem” (setting [4]) and in “physchem” (setting [5]) was 1.43 throughout.

Regarding `O=C(NCC1CC1)c1ccc(-c2cccnc2)o1` [Compound 30], the pest or weed control at 500 g/ha in data set [1] (setting [3]) was 100%. Moreover, the chromatographic logP in “physchem” (setting [4]) stood at 1.39.

For the compound `CNC(=O)c1ccc(-c2cccnc2)o1` [Compound 31, N-Methyl-5-(pyridin-3-yl)furan-2-carboxamide], in data set [1] (in Brassica rapa), the pest or weed control at 500 g/ha stood at 100%. In addition, the chromatographic logP in “physchem” (setting [4]) and in “physchem” (setting [5]) was 0.42 in each case.

As to `CCCNC(=O)c1ccc(-c2cccnc2)o1` [Compound 32], the pest or weed control at 500 g/ha in data set [1] (setting [3]) is 100%. Moreover, in the data set “physchem” (setting [4]), the chromatographic logP worked out at 0.83.

For `O=C(NCC(F)F)c1csc(-c2cccnc2)n1` [Compound 33, N-(2,2-Difluoroethyl)-2-(pyridin-3-yl)-1,3-thiazole-4-carboxamide], the pest or weed control at 500 g/ha in data set [1] (in Brassica rapa) was found to be 100%. Besides, the chromatographic logP in “physchem” (pH 3.4, HPLC, reverse-phase C 18, acidic range pH 3.4, 55° C., table of compounds, read-out: logP (HCO2H)) was 1.22; in the data set “physchem” (pH 3.4, HPLC-MS value printed in the preparation example text, acidic range pH 3.4, read-out: logP (HCOOH)), 1.18.

In the case of `CSC[C@H](C)NC(=O)c1nnc(-c2cccnc2)o1` [Compound 35], the pest or weed control at 500 g/ha in data set [1] (setting [3]) was 80%. The chromatographic logP in “physchem” (setting [4]) is 1.39.

As to `O=C(NCC(F)(F)F)c1ccn(-c2cccnc2)c1` [Compound 36, 1-(Pyridin-3-yl)-N-(2,2,2-trifluoroethyl)pyrrole-3-carboxamide], the pest or weed control at 500 g/ha in data set [1] (in Brassica rapa) worked out at 90%. For the same compound, the chromatographic logP in “physchem” (setting [4]) and in “physchem” (setting [5]) was 1.24 in each case.

As to `CC(F)(F)CNC(=O)c1cn(-c2cccnc2)nn1` [Compound 37, N-(2,2-Difluoropropyl)-1-(pyridin-3-yl)-1H-1,2,3-triazole-4-carboxamide], the pest or weed control at 500 g/ha in data set [1] (in Brassica rapa) is 100%. Also, the chromatographic logP in the data set “physchem” (setting [4]) turned out to be 1.21; in the data set “physchem” (setting [5]), 1.25. The compound further gave an efficacy in % in data set [2] of 100%.

With `CC(F)(F)CNC(=O)c1cc(-c2cccnc2)ns1` [Compound 38, N-(2,2-Difluoropropyl)-3-(pyridin-3-yl)-1,2-thiazole-5-carboxamide], in data set [1] (in Brassica rapa), the pest or weed control at 500 g/ha amounted to 100%. The chromatographic logP in the data set “physchem” (setting [4]) and in the data set “physchem” (setting [5]) was 1.33 throughout.

As for `O=C(NCc1ncccn1)C1CN=C(c2cccnc2)S1` (centres unmarked) [Compound 43], in data set [1] (setting [3]), the pest or weed control at 500 g/ha came to 100%. Further, the chromatographic logP in “physchem” (pH 3.4, logP (HCO2H)) was 0.32.

As to `O=C(NCC(F)(F)F)C1CN=C(c2cncnc2)S1` (centres unmarked) [Compound 45], in data set [1] (setting [3]), the pest or weed control at 500 g/ha worked out at 100%. Further, in “physchem” (setting [4]), the chromatographic logP is 1.4.
